Assay results reported in US20170119034A1, “COMPOSITIONS AND METHODS FOR MODIFYING PERCEPTION OF SWEET TASTE” (University of Florida Research Foundation, Inc., priority 2012, published 2017).

What was measured:
Assay type in all cases: in vivo, human
[1] = tested on: texture liking of strawberry fruit (consumer panel); assay: Strawberry consumer panel: bivariate fit to texture liking; details: bivariate linear fit; X = content of the substance in strawberry fruit, Y = Texture liking
Procedure: (§1) All consumer panels were approved by the University of Florida Institutional Review Board. […] Ages of panelist ranged from 18 to 71, with a median age of 24. Panelists self-classified themselves as 98 White or Caucasian, 11 Black or African-American, 1 Native American, Alaska Native or Aleutian, 41 Asian/Pacific Islander, and 15 Other. […] Fresh, fully-ripe strawberry fruit was removed from overnight 4° C. dark storage and allowed to warm to room temperature prior to sensory analysis. Each panelist was given one to two whole strawberries for evaluation, depending on cultivar availability. Panelist took a bite of each sample, chewed, and swallowed it. Ratings for overall liking and liking for texture were scaled on hedonic general labeled magnitude scale (gLMS) in the context of all pleasure/displeasure experiences. […] Scales were employed to mediate valid comparisons across subjects and sessions.
(§2) Bivariate analysis among individual measurements of samples allowed for linear fit, which includes summary of fit, analysis of variance, t-test, and correlation analysis for density ellipse. Two-way Ward hierarchical cluster analysis of all metabolite concentrations and strawberry samples accomplished in JMP.

[2] = tested on: strawberry flavor intensity (consumer panel); assay: Strawberry consumer panel: bivariate fit to strawberry flavor intensity; details: for Parameter Estimates: Estimate: bivariate linear fit, X = content of the substance in strawberry fruit, Y = Flavor Intensity (FI); for relationship to strawberry flavor intensity / sensory perception: in words
Procedure: as §1, §2

[3] = tested on: perceived sweetness intensity of strawberry fruit (consumer panel); assay: Strawberry consumer panel: multiple regression of volatile concentration against perceived sweetness intensity independent of glucose, fructose or sucrose; details: for enhancement of perceived intensity of sweetness independent of sugars: in words; for FRUCTOSE t RATIO: volatile concentration regressed against perceived sweetness intensity independent of fructose; for GLUCOSE t RATIO: volatile concentration regressed against perceived sweetness intensity independent of glucose; for SUCROSE t RATIO: volatile concentration regressed against perceived sweetness intensity independent of sucrose
Procedure: Step-wise multiple regressions of all volatile compounds against perceived intensity of sweetness is performed independent of either glucose, fructose, or sucrose concentration, separately (Table 6).
as §1
Multiple regressions were performed with the “enter” method in SPSS for identification of sweetness enhancing volatiles. Individual volatile compound concentrations were regressed using the “enter” method in SPSS Statistics (IBM Corp, Armonk, N.Y., USA).

| Compound | Parameter Estimates-fit to Texture Liking: Estimate [1] | Parameter Estimates: Estimate [2] | other results |
| --- | --- | --- | --- |
| CCCCCO [71-41-0] | 0.3727 | 0.2445 | – |
| CCCCCCCC(=O)OCC [106-32-1, ethyl octanoate] | – | – | negatively related to sweetness: sugar(s) of which the effect is independent ([3]; compounds negatively related to sweetness independent of at least one of the sugars): exclusively independent of glucose |
| CC=C(C)C(=O)OCC [55514-48-2] | −2.984 | −0.1506 | – |
| CCCCC(=O)OCC [539-82-2, ethyl valerate] | – | – | enhancement of perceived intensity of sweetness independent of sugars [3]: show evidence of enhancing perceived sweetness intensity independent of individual sugars |
| CCCCCCOC(=O)CCC [2639-63-6, hexyl butyrate] | – | – | enhancement of perceived intensity of sweetness independent of sugars [3]: mutually independent of all three sugar |
| CCC/C=C/CO [928-95-0] | −0.0133 | −0.0006379 | – |
| CCCCCCO [111-27-3] | −0.01204 | −0.001886 | FRUCTOSE t RATIO [3]: −1.253; GLUCOSE t RATIO [3]: −1.481; SUCROSE t RATIO [3]: −0.542 |
| Cc1cc(C(C)(C)C)c(O)c(C(C)(C)C)c1 [128-37-0] | 0.2009 | 0.1227 | – |
| CCOC(=O)CC [105-37-3] | −0.01062 | −0.01371 | – |
| CCCCCCCCOC(=O)C(C)CC (stereo not shown) [29811-50-5] | −0.1411 | 0.1055 | – |
| CCCCCOC(=O)CCC [540-18-1, pentyl butyrate] | – | – | enhancement of perceived intensity of sweetness independent of sugars [3]: mutually independent of all three sugar |
| CCCCCC(C)=O [110-43-0] | 0.07262 | 0.06351 | FRUCTOSE t RATIO [3]: 1.054; GLUCOSE t RATIO [3]: 0.657; SUCROSE t RATIO [3]: 1.899 |
| COC1=C(C)OC(C)C1=O (stereo not shown) [4077-47-8, 4-methoxy-2,5-dimethyl-3(2H)-furanone] | – | – | relationship to strawberry flavor intensity / sensory perception [2]: significant positive correlation with flavor intensity |
| C=C(C)C1CC=C(COC(C)=O)CC1 (stereo not shown) [15111-96-3] | −0.1056 | −0.2365 | – |
| CCCCC(=O)C(C)=O [96-04-8] | −0.09953 | 0.01959 | – |
| CCCCCC=O [66-25-1] | 0.0005099 | 0.0002842 | relationship to strawberry flavor intensity / sensory perception [2]: does not have a significant correlation to flavor intensity |
| CCCC(=O)OC [623-42-7] | 6.892e−05 | 0.0008905 | relationship to strawberry flavor intensity / sensory perception [2]: significant positive correlation with flavor intensity |
| CCC(=O)CC [96-22-0] | 0.004596 | 0.05443 | – |
| CCCCCCC1CCC(=O)O1 (stereo not shown) [706-14-9] | 0.01485 | 0.02049 | – |
| COC(=O)c1ccccc1N [134-20-3] | −4.493 | −0.8484 | – |
| CCCCCCCCC1CCC(=O)O1 (stereo not shown) [2305-05-7, 5-octyldihydro-2(3H)-furanone] | – | – | enhancement of perceived intensity of sweetness independent of sugars [3]: mutually independent of all three sugar |
| CC(=O)OCCC(C)C [123-92-2] | −0.07997 | 0.005816 | – |
| CCCCCCCC=O [124-13-0] | −0.2865 | 0.3091 | – |
| CCCCCCCCOC(=O)CC(C)C [7786-58-5, octyl 3-methylbutanoate] | – | – | enhancement of perceived intensity of sweetness independent of sugars [3]: show evidence of enhancing perceived sweetness intensity independent of individual sugars |
| CCCCCC(=O)OC [106-70-7] | −0.002647 | 0.002291 | FRUCTOSE t RATIO [3]: −0.321; GLUCOSE t RATIO [3]: −0.531; SUCROSE t RATIO [3]: 0.802 |
| COC(=O)CC(C)C [556-24-1] | −0.03139 | 0.009438 | FRUCTOSE t RATIO [3]: 0.732; GLUCOSE t RATIO [3]: 0.88; SUCROSE t RATIO [3]: 0.972 |
| CCCCC(CC)COC(C)=O (stereo not shown) [103-09-3] | −1.955 | 0.01965 | – |
| C=CC(C)(O)CCC=C(C)C (stereo not shown) [78-70-6] | 0.007729 | 0.009457 | FRUCTOSE t RATIO [3]: 0.872; GLUCOSE t RATIO [3]: 0.7; SUCROSE t RATIO [3]: −0.1; relationship to strawberry flavor intensity / sensory perception [2]: significant positive correlation with flavor intensity |
